Measurements: patent US20230312582A1, “Salts Of Nitrogen-Containing Heterocyclic Compound, And Solid Forms Of Salts, Pharmaceutical Composition And Use Thereof” (Wuhan Humanwell Innovative Drug Research And Development …, priority 2020, published 2023)
Like-named read-outs stand apart in the source and are kept apart here.

Columns and labels:
[1] = Hygroscopicity by dynamic vapor sorption (DVS); type: physicochemical
Method: Dynamic vapor sorption (DVS) curves are acquired on a DVS Intrinsic in SMS (Surface Measurement System). The relative humidity at 25° C. is corrected with the deliquescence points of LiCl, Mg(NO3)2 and KCl.
Hygroscopicity of the crystal form A of hydrochloride, the crystal form A of fumarate, the crystal form A of benzenesulfonate and the free base crystal form A prepared repeatedly was evaluated using a dynamic vapor sorption (DVS) instrument. Starting at 0% relative humidity (0% RH), the test acquired the percentage change of mass of the sample when humidity changed (0% RH to 95% RH to 0% RH) at a constant temperature of 25° C.

[2] = Polarizing microscope (PLM) image, particle size; type: physicochemical; details: room temperature
Excerpt: The polarizing microscope data are acquired by an Axio Lab. A1 upright microscope at room temperature.

[3] = Dynamic solubility in water and three biological vehicles; type: physicochemical; details: for Crystal form change: XRPD of solid; for pH: filtrate
Method: The dynamic solubility of the crystal form A of hydrochloride, the crystal form A of fumarate, the crystal form A of benzenesulfonate and the free base crystal form A prepared repeatedly was evaluated in water and three biological vehicles. […] After centrifugation of the samples at each time point (0.45 μm PTFE filter head), the filtrate was determined for HPLC concentration and pH, and the centrifuged solid samples were tested for XRPD.

Solid stability, 1 week = type: physicochemical; details: for Purity (area %): HPLC; for Crystal form change: XRPD
Method: The crystal form A of hydrochloride, the crystal form A of fumarate, the crystal form A of benzenesulfonate and the free base crystal form A prepared repeatedly were placed at 25° C./60% RH and 40° C./75% RH for 1 week, and then the physical and chemical stability of the samples were tested by XRPD and HPLC. […] No significant purity decrease or crystal form transformation occurred in any of the other samples after being placed under 2 conditions for 1 week.

[4] = Stability of crystal form on storage for 6 months; type: physicochemical; details: 40° C./75% RH; 25° C./60% RH; 2° C. to 8° C.; polyethylene bag + aluminum foil bag
Excerpt: (the aluminum foil bag is made of light-proof materials and can be protected from light; and the polyethylene bag and the aluminum foil bag are sealed when being packaged).

[5] = Solid stability evaluation at 60° C. for 24 h; type: physicochemical
Method: The crystal form A of benzenesulfonate of the compound of formula (I) was used as a starting sample, and 100 polymorph screening tests under different conditions were set. The screening method comprises the following steps: adding an anti-solvent, slowly volatilizing, slowly cooling, suspending and stirring (room temperature and 50° C.), circularly heating and cooling, gas-solid permeation, gas-liquid diffusion, inducing and grinding a high polymer. From the X-ray powder diffraction (XRPD) results of the isolated solid, only one polymorph of benzenesulfonate, i.e., the starting form A, was found. A partial evaluation was completed in the salt form screening stage, so only solid stability evaluation at 60° C. for 24 h was performed.

[6] = Pharmacokinetic assay (crystal form) in mice; type: in vivo; details: male, ICR, mouse, plasma, oral intragastric administration 10 mg/kg
Method: (§1) In vivo pharmacokinetic assay in mice was performed, wherein the used mice were 9 male ICR mice weighing 20-25 g and fasted overnight. 9 mice were taken and orally intragastrically administered with 10 mg/kg of the compound. […] Blood samples were centrifuged at 8000 rpm for 6 min at 4° C., and plasma was collected and stored at −20° C. The plasma at each time point was taken and added with 3-5 times of acetonitrile solution containing the internal standard for mixing, and the mixed solution was subjected to vortex mixing for 1 min, and centrifuging at 4° C. for 10 min at 13000 rpm. The supernatant was taken and added with 3 times of water for mixing. A proper amount of the mixed solution was taken for LC-MS/MS analysis. The major pharmacokinetic parameters were analyzed using WinNonlin 7.0 software and a non-compartmental model.

[7] = Stability assay of human liver microsome; type: in vitro ADME; details: human liver microsomes
Method: The stability of human liver microsome was detected by in vitro co-incubation of compounds with human liver microsomes. Test compounds were first prepared as 10 mM stock solutions in DMSO solvent, followed by dilution of the compounds to 0.5 mM using acetonitrile. […] The deep-well plate was taken, […] was added to each well, then 15 μL of pre-warmed 6 mM NADPH solution was added to the plate to start the reaction, and the plate was incubated at 37° C. […] The supernatant was taken after centrifugation, and added with purified water at a ratio of 1:1 for LC-MS/MS detection to obtain the ratio of peak area of compound to peak area of internal standard at each time point. […] T1/2 was calculated using Excel.

[8] = Thermodynamic solubility assay; type: physicochemical; details: thermodynamic from solid
Method: The compounds were weighed out accurately, added to the prepared phosphate buffered saline at pH 7.4, FeSSIF solution at pH 5.8 and FaSSGF solution at pH 1.6 to prepare a solution at a concentration of 4 mg/mL, and the prepared solution was shaken at 1000 rpm for 1 h, and then incubated overnight at room temperature. The incubated solution was centrifuged at 12000 rpm for 10 min to remove undissolved particles, and the supernatant was transferred to a new centrifuge tube. After the supernatant was diluted properly, the supernatant was added with an acetonitrile solution containing an internal standard, and quantified by adopting a standard curve prepared by the same matrix.

[9] = In vivo pharmacokinetic assay in mice; details: male, ICR, mouse, plasma
Method: as §1, with “rats” for “mice”, “6” for “9”, “SD rats” for “ICR mice”, “180-240” for “20-25”, “overnight.” for “overnight. 9 mice were taken and orally intragastrically administered with 10 mg/kg of the compound.”
In vivo pharmacokinetic assay in mice was performed, wherein the used mice were 18 male ICR mice weighing 20-25 g and fasted overnight. […] The rest of the procedure was performed in the same manner as in the pharmacokinetic assay in rats.

[10] = In vivo pharmacokinetic assay in rats
Method: as §1, with “rats” for “mice”, “6” for “9”, “SD rats” for “ICR mice”, “180-240” for “20-25”, “overnight.” for “overnight. 9 mice were taken and orally intragastrically administered with 10 mg/kg of the compound.”

[11] = test system: Bleomycin-induced IPF model; test: Bleomycin-induced IPF model in rats; type: in vivo; details: 30 mg/kg oral twice a day, 21 days
Method: The bleomycin-induced IPF model (idiopathic pulmonary fibrosis model) was performed at a dose of 5 U/kg using male BN rats weighing 180-240 g. […] The oral intragastric administration was performed twice a day on the second day after the modeling. The administration group was given a dose of 30 mg/kg at one time, and the vehicle control group was given blank vehicle for 21 consecutive days. During dosing, body weights were weighed every three days. On the 21st day of administration, bronchoalveolar lavage was performed 2 h after the first administration, the inflammatory cells in the lavage fluid were counted, and the relevant biomarkers in the lavage fluid supernatant were detected; after lavage, the left lung of the rat was harvested for fixation, and Masson's trichrome staining was used for pathological scoring of fibrosis and the remaining lung lobes were cryopreserved. The bronchoalveolar lavage fluid supernatant and freshly cryopreserved lung tissue of compound 3 group were taken, and the TGF-β1 protein content and total protein amount were detected by ELISA method, and the amount of TGF-β1 per mg of total protein was calculated.

Autotaxin enzyme = Autotaxin enzyme (Homo sapiens (Human), UniProt Q13822); details: read-out: IC50 against ATX enzymatic activity; Autotaxin Inhibitor Screening Assay Kit, 37° C., 30 min, OD405
Method: The inhibitory activity of the compound against the Autotaxin enzyme was detected using the Autotaxin Inhibitor Screening Assay Kit (Cayman, 700580). The compound to be tested was first prepared into 10 mM stock solution in DMSO solvent, and then serially diluted into 8 concentrations of compound with DMSO. Subsequently, 8 concentrations of compound were diluted to 19× compound working solution (with DMSO content of 1.9%) with an Autotaxin Assay buffer (1×) provided in the kit. Autotaxin Assay Reagent (10×) was taken out and diluted 10-fold with Autotaxin Assay Buffer (1×). The Autotaxin Substrate was taken out, and added with 1.2 mL of Autotaxin Assay Buffer (1×) for dissolving. The mixture was mixed well and then let stand at room temperature. In a 96-well plate, 150 μL of Autotaxin Assay Buffer (1×), 10 μL of diluted 19× compound working solution, 10 μL of Autotaxin Assay Reagent (1×), 20 μL of dissolved Autotaxin Substrate were added into wells at each concentration, and then the mixture was mixed well, incubated at 37° C. on a constant-temperature shaking shaker, and incubated in the dark for 30 min.

hERG channel [12] = molecular target: T1, hERG channel (Homo sapiens (Human), UniProt Q12809); details: hERG IC50 in μM divided by ATX IC50 in nM as printed
Method: (§2) Inhibitory effect of the compound on hERG was detected using automated electrophysiological patch clamp QPatch. The cells used in this assay were CHO cell lines (supplied by Sophion Bioscience, Denmark) transfected with hERG cDNA and stably expressing hERG channel at cell passage number of P24. The cells were cultured in a medium containing the following components (all purchased from Invitrogen): ham's F12 medium, 10% (v/v) inactivated fetal bovine serum, 100 μg/mL hygromycin B and 100 μg/mL Geneticin. CHO hERG cells were grown in a culture dish containing the above culture solution and cultured in an incubator containing 5% CO2 at 37° C.
(§3) Extracellular buffer (2 mM CaCl2, 1 mM MgCl2, 4 mM KCl, 145 mM NaCl, 10 mM Glucose, 10 mM HEPES, pH: about 7.4, osmotic pressure: about 305 mOsm) and intracellular buffer (5.374 mM CaCl2, 1.75 mM MgCl2, 120 mM KCl, 10 mM HEPES, 5 mM EGTA, 4 mM Na-ATP, pH: about 7.25, osmotic pressure: about 295 mOsm) were prepared. […]
(§4) The assay data were analyzed by Qpatch analysis software supplied by Sophion, Excel, Graphpad Prism and the like.

hERG channel [13] = molecular target: T1, hERG channel; test: cell-based
Method: as §2, §3, §4

[14] = molecular target: ATX enzymatic activity in human plasma (Homo sapiens (Human), UniProt Q13822); test: biochemical
Method: Whole blood from healthy volunteers was collected and anticoagulated with heparin. The blood collection tubes were centrifuged at 3000 rpm for 10 min, and plasma was taken and stored at −80° C. for later use.
The compounds were serially diluted with DMSO according to the standard concentration requirements, and then 3 μL of the compound was taken and added to a 96-well plate. 147 μL of PBS was added to each well containing 3 μL of the compound, and the mixed solution was mixed well, and then 50 μL of the mixed solution was taken out and added to a new 96-well plate. The human plasma was taken out of −80° C. refrigerator and thawed by rapid shaking in a 37° C. water bath, and 50 μL of human plasma was added to a 96-well plate containing 50 μL of diluted compounds (the final system was 1% DMSO). […]
After the incubation, the blank group was thawed on ice and transferred to the incubation plate. […] The peak areas of LPA18:2 and internal standard LPA17:0 were detected by LC-MSMS mass spectrometry.
The peak area ratio of LPA18:2 to internal standard LPA17:0 was calculated, and the generation inhibition rate of LPA18:2 was calculated according to the following formula: […]
According to the inhibition rate of different concentrations of the compound, the IC50 values of the compound were calculated for inhibition of ATX enzymatic activity in human plasma.

[15] = SGF, 4 h, listed as Benzenesulfonate Crystal form
[16] = SGF, 24 h, listed as Benzenesulfonate Crystal form
[17] = oral intragastric administration 10 mg/kg
[18] = male, SD, rat, plasma, intravenous injection 1 mg/kg
[19] = male, SD, rat, plasma, oral intragastric administration 10 mg/kg

T1 sequence (Q12809 whole entry): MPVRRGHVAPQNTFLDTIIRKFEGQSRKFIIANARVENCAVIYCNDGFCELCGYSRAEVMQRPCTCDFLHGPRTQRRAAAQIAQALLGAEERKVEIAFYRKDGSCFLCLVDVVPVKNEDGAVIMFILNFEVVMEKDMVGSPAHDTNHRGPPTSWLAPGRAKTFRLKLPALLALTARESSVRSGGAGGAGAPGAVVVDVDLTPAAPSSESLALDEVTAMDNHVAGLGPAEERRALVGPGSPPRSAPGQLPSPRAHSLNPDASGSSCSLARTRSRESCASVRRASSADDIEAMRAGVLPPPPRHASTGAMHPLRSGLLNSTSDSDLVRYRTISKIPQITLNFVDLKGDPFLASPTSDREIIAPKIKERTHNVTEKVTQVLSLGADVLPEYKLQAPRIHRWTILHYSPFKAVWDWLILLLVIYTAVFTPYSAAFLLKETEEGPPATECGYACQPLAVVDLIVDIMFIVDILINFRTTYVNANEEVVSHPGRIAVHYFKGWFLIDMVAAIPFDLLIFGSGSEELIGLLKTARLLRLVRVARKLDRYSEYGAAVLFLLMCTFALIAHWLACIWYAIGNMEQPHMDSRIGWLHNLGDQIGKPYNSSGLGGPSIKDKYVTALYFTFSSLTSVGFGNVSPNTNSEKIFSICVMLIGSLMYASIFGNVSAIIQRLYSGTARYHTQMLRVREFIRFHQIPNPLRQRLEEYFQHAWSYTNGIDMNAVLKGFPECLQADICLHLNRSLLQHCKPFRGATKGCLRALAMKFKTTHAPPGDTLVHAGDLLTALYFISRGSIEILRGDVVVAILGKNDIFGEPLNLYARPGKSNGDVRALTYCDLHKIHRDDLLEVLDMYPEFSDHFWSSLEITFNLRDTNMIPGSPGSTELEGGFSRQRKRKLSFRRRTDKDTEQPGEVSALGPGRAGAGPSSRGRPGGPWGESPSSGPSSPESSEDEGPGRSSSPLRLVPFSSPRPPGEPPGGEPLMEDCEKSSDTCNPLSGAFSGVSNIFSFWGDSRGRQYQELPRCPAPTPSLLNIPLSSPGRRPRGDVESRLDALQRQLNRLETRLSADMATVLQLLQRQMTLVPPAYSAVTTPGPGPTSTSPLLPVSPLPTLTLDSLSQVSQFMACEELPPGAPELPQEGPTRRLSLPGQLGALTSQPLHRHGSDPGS

C[C@H](Cc1cnn[nH]1)OCC(=O)N1Cc2cnc(NC3Cc4ccccc4C3)nc2C1 [Crystal form A of benzenesulfonate]
After DVS test Whether the crystal form is changed ([1]; 0% RH to 95% RH to 0% RH, 25° C.): No
Hygroscopicity ([1]; DVS, 25° C.): Slightly
Vapor sorption (25° C./80% RH) ([1]; DVS, 25° C., 80% RH): 1.45%
DVS curve vapor sorption ([1]; at 0% RH to 80% RH): less than 1.46%
Risk evaluation ([1]; hygroscopicity evaluation): None
particle size [2]: less than 50 μm
Crystal form change ([3]; SGF, 1 h): No
Crystal form change [3, 15]: Clear
Crystal form change [3, 16]: Clear
pH ([3]; FaSSIF, 1 h, listed as Benzenesulfonate Crystal form): 6.0
pH ([3]; FaSSIF, 4 h, listed as Benzenesulfonate Crystal form): 6.0
pH ([3]; FaSSIF, 24 h, listed as Benzenesulfonate Crystal form): 6.0
pH ([3]; FeSSIF, 1 h, listed as Benzenesulfonate Crystal form): 5.0
pH ([3]; FeSSIF, 4 h, listed as Benzenesulfonate Crystal form): 5.0
pH ([3]; FeSSIF, 24 h, listed as Benzenesulfonate Crystal form): 5.0
pH ([3]; H2O, 1 h, listed as Benzenesulfonate Crystal form): 2.5
pH ([3]; H2O, 4 h, listed as Benzenesulfonate Crystal form): 2.5
pH ([3]; H2O, 24 h, listed as Benzenesulfonate Crystal form): 2.5
pH ([3]; SGF, 1 h, listed as Benzenesulfonate Crystal form): 1.9
pH [3, 15]: 1.9
pH [3, 16]: 1.9
solubility in each system compared with that of the free base crystal form A ([3]; water, SGF, FaSSIF, FeSSIF): significantly improved
Purity/initial purity (%) (Solid stability, 1 week; 25° C./60% RH): 100.0%
Purity (area %) (Solid stability, 1 week; 25° C./60% RH): 99.35 area %
Crystal form change (Solid stability, 1 week; 25° C./60% RH): No
Purity/initial purity (%) (Solid stability, 1 week; 40° C./75% RH): 99.9%
Purity (area %) (Solid stability, 1 week; 40° C./75% RH): 99.20 area %
Crystal form change (Solid stability, 1 week; 40° C./75% RH): No
crystal form after being stored for 6 months [4]: unchanged
stability after being stored for 6 months [4]: excellent stability
Purity (area %) [5]: 98.23 area %
Purity/initial purity (%) [5]: 100.0%
Crystal form change ([5]; XRPD): No
AUC(0-t) [6]: 7430 ng·h/mL
Cmax [6]: 6600 ng/mL
Tmax [6]: 30 min
half-life [6]: 71.4 min

C[C@H](Cc1cnn[nH]1)OCC(=O)N1Cc2cnc(NC3Cc4ccccc4C3)nc2C1 [Compound of formula (I), (R)-2-((1-(1H-1,2,3-triazol-5-yl)propan-2-yl)oxy)-1-(2-((2,3-dihydro-1H-inden-2-yl)amino)-5,7-dihydro-6H-pyrrolo[3,4-d]pyrimidin-6-yl)ethan-1-one]
T1/2 of the liver microsome stability relative to the control compound [7]: more than 2 times
Remaining percentage of compound after 30 min of incubation (%) ([7]; NADPH, 37° C.): 63.7%
half-life at 1.5 μM ([7]; NADPH, 37° C.): 53.6 min
solubility ([8]; FaSSGF solution, fassgf or other biorelevant, heading: Solubility FaSSGF, FaSSGF, pH 1.6, room temperature overnight): 1.04 mg/mL
solubility ([8]; FeSSIF solution, FeSSIF, pH 5.8, room temperature overnight, read-out: Solubility FeSSIF (pH 5.8)): 260 mg/mL
solubility ([8]; phosphate buffered saline, aqueous buffer, PBS, pH 7.4, room temperature overnight, read-out: Solubility PBS (pH 7.4)): 107 mg/mL
AUC(0-t) ([9]; intravenous injection 1 mg/kg): 626 ng·h/mL
clearance ([9]; intravenous injection 1 mg/kg): 26.7 mL/min/kg
half-life ([9]; intravenous injection 1 mg/kg): 22.8 min
Vd ([9]; intravenous injection 1 mg/kg, read-out: Vz): 0.88 L/kg
AUC(0-t) [9, 17]: 6370 ng·h/mL
Cmax [9, 17]: 6360 ng/mL
Tmax [9, 17]: 15 min
half-life [9, 17]: 52.2 min
clearance (CL) in rats relative to that of the control compound [10]: about ⅙
AUC(0-t) [10, 18]: 3650 ng·h/mL
clearance [10, 18]: 4.67 mL/min/kg
half-life [10, 18]: 30 min
Vd ([10]; male, SD, rat, plasma, intravenous injection 1 mg/kg, read-out: Vz): 0.21 L/kg
AUC(0-t) [10, 19]: 20700 ng·h/mL
Cmax [10, 19]: 15800 ng/mL
Tmax [10, 19]: 19.8 min
half-life [10, 19]: 154 min
AUC0-t of oral administration relative to the control compound ([10]; oral): 4.2 times
Cmax of oral administration relative to the control compound ([10]; oral): 6.1 times
content of TGF-β1 in freshly cryopreserved lung tissue ([11]; ELISA, FIG. 44): significantly lower than that of the vehicle control group
content of TGF-β1 in the bronchoalveolar lavage fluid supernatant ([11]; ELISA, FIG. 44): significantly lower than that of the vehicle control group
weight loss of the animals ([11]; FIG. 43): significantly less than that of the control compound group
IC50 (Autotaxin enzyme): 1.59 nM
hERG IC50/ATX IC50 (hERG channel [12]): 9.48/1.59 = 6.0
IC50 (hERG channel [13]): 9480 nM
IC50 [14]: 4.7 nM
